Consider 15 molecules from US20240294551A1 (AMGEN INC., priority 2022, published 2024).

Assay [1] concerns the target GDP-bound KRAS protein (aa 1-169), containing both G12D and C118A amino acid substitutions (Homo sapiens (Human), UniProt P01116, C118A/G12D). Nature of the assay: KRAS G12D Coupled Nucleotide Exchange Assay. The class given is biochemical.
The target in assay [2] is His-tagged KRAS G12D protein (Homo sapiens (Human), UniProt P01116, G12D). Nature of the assay: KRAS G12D TR-FRET Assay. The class given is binding. Summed up:
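Each incubation ran at room temperature: enzyme with compound for 30 minutes, peptide for one hour, and detection reagents (0.4 nM europium anti-6×His, 5 nM streptavidin-d2) for one hour more. Protein and peptide stocks were each diluted to 20 nM before addition.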
Background: Time-resolved FRET reads energy transfer from a long-lived donor to a nearby acceptor.

Where [3] appears, read: read-out: KRAS G12D Coupled Exchange IC50.
The mark [4] stands for this setting: read-out: KRAS G12D Binding IC50.
Setting [5] is: 2 hours compound pre-incubation, read-out: KRAS G12D Coupled Exchange.
Setting [6] is: TR-FRET, read-out: KRAS G12D Binding.

Where two headings read alike, the source gives them in different places.

Sequence of GDP-bound KRAS protein (aa 1-169), containing both G12D and C118A amino acid substitutions (P01116 other isoform, or with tags, fused parts or gaps G12D/C118A): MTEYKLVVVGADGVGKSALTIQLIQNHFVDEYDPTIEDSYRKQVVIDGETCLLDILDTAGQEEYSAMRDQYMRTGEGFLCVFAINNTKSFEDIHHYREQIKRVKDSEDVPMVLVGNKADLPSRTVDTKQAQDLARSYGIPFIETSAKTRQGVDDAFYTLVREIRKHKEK
Sequence of His-tagged KRAS G12D protein (P01116 other isoform, or with tags, fused parts or gaps G12D): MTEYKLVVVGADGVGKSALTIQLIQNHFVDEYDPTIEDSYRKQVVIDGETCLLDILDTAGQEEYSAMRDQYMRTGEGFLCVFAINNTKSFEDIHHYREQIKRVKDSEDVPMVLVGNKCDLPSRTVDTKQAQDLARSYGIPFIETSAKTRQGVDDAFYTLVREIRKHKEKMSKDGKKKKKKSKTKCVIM

As for `Fc1c2ncc3c(nc(OC[C@@]45CCCN4C[C@H](F)C5)nc13)N1CCOC[C@@H](C1)c1cnn(n1)CCCc1c(Cl)cc3[nH]ncc3c1-2` [Example 297, (1S)-10-chloro-33-fluoro-24-(((2R,7aS)-2-fluorotetrahydro-1H-pyrrolo[1,2-a]pyrrol-7a(5H)-yl)methoxy)-30-oxa-4,5,13,14,19,23,25,27,34-nonaazaheptacyclo[25.4.1.1~2,5~.1~18,22~.0~9,17~.0~12,16~.0~21,26~]tetratriaconta-2(34),3,9,11,14,16,18(33),19,21,23,25-undecaene], the IC50 stood at 5980 nM in assay [1] (setting [3]) and 8070 nM in assay [2] (setting [4]).
On to `O=C1N[C@@H]2CCCCN(C2)c2nc(OC[C@@]34CCCN3C[C@H](F)C4)nc3c(F)c(ncc23)-c2c3c(cc4[nH]ncc24)CC[C@@H]3CCO1` [Example 302, (16R,22R)-34-fluoro-8-(((2R,7aS)-2-fluorotetrahydro-1H-pyrrolo[1,2-a]pyrrol-7a(5H)-yl)methoxy)-19-oxa-3,7,9,11,17,28,29-heptaazaheptacyclo[20.9.1.1~2,6~.1~11,16~.0~5,10~.0~25,32~.0~27,31~]tetratriaconta-1(31),2(34),3,5,7,9,25(32),26,29-nonaen-18-one], for which the IC50 in assay [1] (setting [3]) was determined as 831 nM; in assay [2] (setting [4]), 1270 nM.
For the molecule `CN(C)CC1(COc2nc3c4cc(F)c(c(F)c4n2)-c2c(c(Cl)cc4[nH]ncc24)CCCOC(=O)O[C@@H]2COCCN3C2)CC1` [Example 306, m-(26S)-18-chloro-4-((1-((dimethylamino)methyl)cyclopropyl)methoxy)-9,32-difluoro-23,25,28-trioxa-1,3,5,14,15-pentaazahexacyclo[24.4.1.1~6,10~.0~2,7~.0~11,19~.0~12,16~]dotriaconta-2,4,6,8,10(32),11,13,16,18-nonaen-24-one], the IC50 in assay [1] (setting [3]) was 450 nM; in assay [2] (setting [4]) it was 695 nM.
The like results for `O=C1OCCCc2c(Cl)cc3[nH]ncc3c2-c2ncc3c(nc(OC[C@@]45CCCN4C[C@H](F)C5)nc3c2F)N2CCOC[C@@](CF)(C2)O1` [Example 310, (26R)-18-chloro-32-fluoro-26-(fluoromethyl)-4-(((2R,7aS)-2-fluorotetrahydro-1H-pyrrolo[1,2-a]pyrrol-7a(5H)-yl)methoxy)-23,25,28-trioxa-1,3,5,9,14,15-hexaazahexacyclo[24.4.1.1~6,10~.0~2,7~.0~11,19~.0~12,16~]dotriaconta-2,4,6(32),7,9,11,13,16,18-nonaen-24-one] were, in that order, 1490 nM and 2260 nM.
The corresponding values for `O=C1OCCc2c(Cl)cc3[nH]ncc3c2-c2ncc3c(nc(OC[C@@]45CCCN4C[C@H](F)C5)nc3c2F)N2CCOC[C@]3(C2)C[C@@H](C3)O1` [Example 317, (1S,3S)-10-chloro-33-fluoro-24-(((2R,7aS)-2-fluorotetrahydro-1H-pyrrolo[1,2-a]pyrrol-7a(5H)-yl)methoxy)-4,6,30-trioxa-13,14,19,23,25,27-hexaazaheptacyclo[25.4.1.1~1,3~.1~18,22~.0~9,17~.0~12,16~.0~21,26~]tetratriaconta-9,11,14,16,18(33),19,21,23,25-nonaen-5-one] are 35 nM and 50 nM.
The like results for `O=C1OCCCCc2c(Cl)cc3[nH]ncc3c2-c2ncc3c(nc(OC[C@@]45CCCN4C[C@H](F)C5)nc3c2F)N2CCOC[C@H](C2)O1` [Example 324, (27S)-18-chloro-33-fluoro-4-(((2R,7aS)-2-fluorotetrahydro-1H-pyrrolo[1,2-a]pyrrol-7a(5H)-yl)methoxy)-24,26,29-trioxa-1,3,5,9,14,15-hexaazahexacyclo[25.4.1.1~6,10~.0~2,7~.0~11,19~.0~12,16~]tritriaconta-2,4,6,8,10(33),11,13,16,18-nonaen-25-one] were, in that order, 42 nM and 61 nM.
Take `CN(C)CC1(COc2nc3c4cnc(c(F)c4n2)-c2c(c(Cl)cc4[nH]ncc24)CCCOC(=O)O[C@@]2(C)COCCN3C2)CC1` [Example 332, (26R)-18-chloro-4-((1-((dimethylamino)methyl)cyclopropyl)methoxy)-32-fluoro-26-methyl-23,25,28-trioxa-1,3,5,9,14,15-hexaazahexacyclo[24.4.1.1~6,10~.0~2,7~.0~11,19~.0~12,16~]dotriaconta-2,4,6,8,10(32),11,13,16,18-nonaen-24-one]: the IC50 in assay [1] (setting [3]) worked out at 2110 nM; in assay [2] (setting [4]), 3240 nM.
The like results for `CN1CCC[C@H]1COc1nc2c3cnc(c(F)c3n1)-c1c(c(Cl)cc3[nH]ncc13)CCCOC(=O)O[C@@]1(CF)COCCN2C1` [Example 337, (26R)-18-chloro-32-fluoro-26-(fluoromethyl)-4-(((2S)-1-methyl-2-pyrrolidinyl)methoxy)-23,25,28-trioxa-1,3,5,9,14,15-hexaazahexacyclo[24.4.1.1~6,10~.0~2,7~.0~11,19~.0~12,16~]dotriaconta-2,4,6,8,10(32),11,13,16,18-nonaen-24-one] were, in that order, 790 nM and 2440 nM.
`Cn1ncc2cc(Cl)c3c(c21)-c1ncc2c(nc(OC[C@@]45CCCN4C[C@H](F)C5)nc2c1F)N1CCOC[C@H](C1)OC(=O)OCCC3` [Example 364, (26S)-18-chloro-32-fluoro-4-(((2R,7aS)-2-fluorotetrahydro-1H-pyrrolo[1,2-a]pyrrol-7a(5H)-yl)methoxy)-13-methyl-23,25,28-trioxa-1,3,5,9,13,14-hexaazahexacyclo[24.4.1.1~6,10~.0~2,7~.0~11,19~.0~12,16~]dotriaconta-2,4,6,8,10(32),11,14,16,18-nonaen-24-one]: the IC50 in assay [1] (setting [3]) stood at 20 nM; in assay [2] (setting [4]), 102 nM.
The corresponding values for `C[C@@]12COCCN(C1)c1nc(OC[C@@]34CCCN3C[C@H](F)C4)nc3c(F)c(ncc13)-c1c3c(cc4[nH]ncc14)CC[C@@H]3CCOC(=O)O2` [Example 366, (16S,22R)-34-fluoro-8-(((2R,7aS)-2-fluorotetrahydro-1H-pyrrolo[1,2-a]pyrrol-7a(5H)-yl)methoxy)-16-methyl-14,17,19-trioxa-3,7,9,11,28,29-hexaazaheptacyclo[20.9.1.1~2,6~.1~11,16~.0~5,10~.0~25,32~.0~27,31~]tetratriaconta-1(31),2(34),3,5,7,9,25(32),26,29-nonaen-18-one] are 631 nM and 938 nM.
The like results for `O=C1OCC[C@H]2CCc3cc4[nH]ncc4c(c32)-c2ncc3c(nc(OC[C@@]45CCCN4C[C@H](F)C5)nc3c2F)N2CCOC[C@H](C2)O1` [Example 368, (16S,22R)-34-fluoro-8-(((2R,7aS)-2-fluorotetrahydro-1H-pyrrolo[1,2-a]pyrrol-7a(5H)-yl)methoxy)-14,17,19-trioxa-3,7,9,11,28,29-hexaazaheptacyclo[20.9.1.1~2,6~.1~11,16~.0~5,10~.0~25,32~.0~27,31~]tetratriaconta-1(31),2(34),3,5,7,9,25(32),26,29-nonaen-18-one] were, in that order, 783 nM and 1230 nM.
Regarding `O[C@H]1C[C@@H]2CN(C1)c1nc(OC[C@@]34CCCN3C[C@H](F)C4)nc3c(F)c(ncc13)-c1c(c(Cl)cc3[nH]ncc13)CCCc1nc2no1` [Example 378], the IC50 in assay [1] (setting [5]) came out at 15 nM; in assay [2] (setting [6]), 34 nM.
The corresponding values for `Fc1c2ncc3c(nc(OC[C@@]45CCCN4C[C@H](F)C5)nc13)N1CCC[C@@H](C1)c1cnc(o1)CCCc1c(Cl)cc3[nH]ncc3c1-2` [Example 386, (18S)-9-chloro-31-fluoro-25-(((2R,7aS)-2-fluorotetrahydro-1H-pyrrolo[1,2-a]pyrrol-7a(5H)-yl)methoxy)-33-oxa-5,6,15,22,24,26,30-heptaazaheptacyclo[25.3.1.1~14,17~.1~18,22~.0~2,10~.0~3,7~.0~23,28~]tritriaconta-1(31),2,4,7,9,14,16,23,25,27,29-undecaene] are 1810 nM and 3730 nM.
The like results for `Fc1c2ncc3c(nc(OC[C@@]45CCCN4C[C@H](F)C5)nc13)N1CCO[C@@H](C1)c1coc(n1)CCCc1c(Cl)cc3[nH]ncc3c1-2` [Example 389, (18S)-9-chloro-31-fluoro-25-(((2R,7aS)-2-fluorotetrahydro-1H-pyrrolo[1,2-a]pyrrol-7a(5H)-yl)methoxy)-15,19-dioxa-5,6,22,24,26,30,33-heptaazaheptacyclo[25.3.1.1~14,17~.1~18,22~.0~2,10~.0~3,7~.0~23,28~]tritriaconta-1(31),2,4,7,9,14(33),16,23,25,27,29-undecaene] were, in that order, 1020 nM and 3960 nM.
The like results for `Fc1c2ncc3c(nc(OC[C@@]45CCCN4C[C@H](F)C5)nc13)N1CCO[C@@H](COCC[C@H]3C[C@H]3c3c(Cl)cc4[nH]ncc4c3-2)C1` [Example 393, (11R,13R,18R)-9-chloro-31-fluoro-25-(((2R,7aS)-2-fluorotetrahydro-1H-pyrrolo[1,2-a]pyrrol-7a(5H)-yl)methoxy)-16,19-dioxa-5,6,22,24,26,30-hexaazaheptacyclo[25.3.1.1~18,22~.0~2,10~.0~3,7~.0~11,13~.0~23,28~]dotriaconta-1(31),2,4,7,9,23,25,27,29-nonaene] were, in that order, 1170 nM and 1810 nM.
